Columns and labels:
Conditions in all cases: 1 µM; inhibitor
[1] = biological target: AKT1 (Homo sapiens, UniProt P31749)
[2] = biological target: AurA (Homo sapiens, UniProt O14965)
[3] = biological target: BRSK1 (Homo sapiens, UniProt Q8TDC3)
[4] = biological target: CAMK1D (Homo sapiens, UniProt Q8IU85)
[5] = biological target: CAMKK2 (Homo sapiens, UniProt Q96RR4)
[6] = biological target: CDK4/CycD2 (Homo sapiens, UniProt P11802)
[7] = biological target: CDK5 (Homo sapiens, UniProt Q00535)
[8] = biological target: CDK6 (Homo sapiens, UniProt Q00534)
[9] = biological target: CDK6/CycD2 (Homo sapiens, UniProt Q00534)
[10] = biological target: EPHA7 (Homo sapiens, UniProt Q15375)
[11] = biological target: ERK7 (Homo sapiens, UniProt Q8TD08)
[12] = biological target: INSR (Homo sapiens, UniProt P06213)
[13] = biological target: INSRR (Homo sapiens, UniProt P14616)
[14] = biological target: IRAK1 (Homo sapiens, UniProt P51617)
[15] = biological target: KIT (Homo sapiens, UniProt P10721)
[16] = biological target: LRRK2 (Homo sapiens, UniProt Q5S007)
[17] = biological target: MASTL (Homo sapiens, UniProt Q96GX5)
[18] = biological target: MKK7 (Homo sapiens, UniProt O14733)
[19] = biological target: MKNK1 (Homo sapiens, UniProt Q9BUB5)
[20] = biological target: MUSK (Homo sapiens, UniProt O15146)
[21] = biological target: NDR1 (Homo sapiens, UniProt Q15208)
[22] = biological target: PHKG1 (Homo sapiens, UniProt Q16816)
[23] = biological target: PIM2 (Homo sapiens, UniProt Q9P1W9)
[24] = biological target: PKA (Homo sapiens, UniProt P17612)
[25] = biological target: PKCt (Homo sapiens, UniProt Q04759)
[26] = biological target: PKCz (Homo sapiens, UniProt Q05513)
[27] = biological target: RET (Homo sapiens, UniProt P07949)
[28] = biological target: RPS6KB2 (Homo sapiens, UniProt Q9UBS0)
[29] = biological target: SIK3 (Homo sapiens, UniProt Q9Y2K2)
[30] = biological target: STK17A (Homo sapiens, UniProt Q9UEE5)
[31] = biological target: TAOK2 (Homo sapiens, UniProt Q9UL54)

Chain of MKNK1 (Q9BUB5 whole entry): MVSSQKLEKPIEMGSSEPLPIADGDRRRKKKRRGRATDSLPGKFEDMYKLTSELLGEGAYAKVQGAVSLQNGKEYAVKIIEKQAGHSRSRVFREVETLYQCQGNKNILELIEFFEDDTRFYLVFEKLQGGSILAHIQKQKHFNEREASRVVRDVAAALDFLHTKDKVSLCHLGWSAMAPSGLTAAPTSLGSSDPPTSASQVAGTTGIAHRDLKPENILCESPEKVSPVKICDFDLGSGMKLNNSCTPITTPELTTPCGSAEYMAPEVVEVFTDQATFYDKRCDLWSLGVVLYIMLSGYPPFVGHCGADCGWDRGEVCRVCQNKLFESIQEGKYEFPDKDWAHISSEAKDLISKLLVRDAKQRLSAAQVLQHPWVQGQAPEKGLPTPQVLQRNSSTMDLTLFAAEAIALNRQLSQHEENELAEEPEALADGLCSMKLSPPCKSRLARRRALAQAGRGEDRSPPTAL
Chain of PKCt (Q04759 whole entry): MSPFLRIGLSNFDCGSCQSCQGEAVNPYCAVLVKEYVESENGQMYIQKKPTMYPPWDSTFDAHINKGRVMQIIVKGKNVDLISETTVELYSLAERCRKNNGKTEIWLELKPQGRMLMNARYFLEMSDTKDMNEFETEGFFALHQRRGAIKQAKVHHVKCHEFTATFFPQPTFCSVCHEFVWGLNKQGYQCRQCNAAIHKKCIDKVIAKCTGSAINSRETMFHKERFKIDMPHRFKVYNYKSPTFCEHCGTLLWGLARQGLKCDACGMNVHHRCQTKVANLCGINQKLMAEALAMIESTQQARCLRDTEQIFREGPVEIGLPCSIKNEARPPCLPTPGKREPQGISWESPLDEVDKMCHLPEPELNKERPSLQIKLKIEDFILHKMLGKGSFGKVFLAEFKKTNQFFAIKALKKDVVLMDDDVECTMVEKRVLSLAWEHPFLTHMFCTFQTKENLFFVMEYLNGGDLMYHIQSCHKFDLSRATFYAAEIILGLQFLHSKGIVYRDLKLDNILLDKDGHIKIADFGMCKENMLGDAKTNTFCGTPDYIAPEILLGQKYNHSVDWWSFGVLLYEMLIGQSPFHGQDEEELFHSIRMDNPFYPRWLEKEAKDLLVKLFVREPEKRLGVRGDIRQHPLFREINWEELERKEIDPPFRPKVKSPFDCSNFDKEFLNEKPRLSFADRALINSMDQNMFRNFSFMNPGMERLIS
Chain of LRRK2 (Q5S007 whole entry): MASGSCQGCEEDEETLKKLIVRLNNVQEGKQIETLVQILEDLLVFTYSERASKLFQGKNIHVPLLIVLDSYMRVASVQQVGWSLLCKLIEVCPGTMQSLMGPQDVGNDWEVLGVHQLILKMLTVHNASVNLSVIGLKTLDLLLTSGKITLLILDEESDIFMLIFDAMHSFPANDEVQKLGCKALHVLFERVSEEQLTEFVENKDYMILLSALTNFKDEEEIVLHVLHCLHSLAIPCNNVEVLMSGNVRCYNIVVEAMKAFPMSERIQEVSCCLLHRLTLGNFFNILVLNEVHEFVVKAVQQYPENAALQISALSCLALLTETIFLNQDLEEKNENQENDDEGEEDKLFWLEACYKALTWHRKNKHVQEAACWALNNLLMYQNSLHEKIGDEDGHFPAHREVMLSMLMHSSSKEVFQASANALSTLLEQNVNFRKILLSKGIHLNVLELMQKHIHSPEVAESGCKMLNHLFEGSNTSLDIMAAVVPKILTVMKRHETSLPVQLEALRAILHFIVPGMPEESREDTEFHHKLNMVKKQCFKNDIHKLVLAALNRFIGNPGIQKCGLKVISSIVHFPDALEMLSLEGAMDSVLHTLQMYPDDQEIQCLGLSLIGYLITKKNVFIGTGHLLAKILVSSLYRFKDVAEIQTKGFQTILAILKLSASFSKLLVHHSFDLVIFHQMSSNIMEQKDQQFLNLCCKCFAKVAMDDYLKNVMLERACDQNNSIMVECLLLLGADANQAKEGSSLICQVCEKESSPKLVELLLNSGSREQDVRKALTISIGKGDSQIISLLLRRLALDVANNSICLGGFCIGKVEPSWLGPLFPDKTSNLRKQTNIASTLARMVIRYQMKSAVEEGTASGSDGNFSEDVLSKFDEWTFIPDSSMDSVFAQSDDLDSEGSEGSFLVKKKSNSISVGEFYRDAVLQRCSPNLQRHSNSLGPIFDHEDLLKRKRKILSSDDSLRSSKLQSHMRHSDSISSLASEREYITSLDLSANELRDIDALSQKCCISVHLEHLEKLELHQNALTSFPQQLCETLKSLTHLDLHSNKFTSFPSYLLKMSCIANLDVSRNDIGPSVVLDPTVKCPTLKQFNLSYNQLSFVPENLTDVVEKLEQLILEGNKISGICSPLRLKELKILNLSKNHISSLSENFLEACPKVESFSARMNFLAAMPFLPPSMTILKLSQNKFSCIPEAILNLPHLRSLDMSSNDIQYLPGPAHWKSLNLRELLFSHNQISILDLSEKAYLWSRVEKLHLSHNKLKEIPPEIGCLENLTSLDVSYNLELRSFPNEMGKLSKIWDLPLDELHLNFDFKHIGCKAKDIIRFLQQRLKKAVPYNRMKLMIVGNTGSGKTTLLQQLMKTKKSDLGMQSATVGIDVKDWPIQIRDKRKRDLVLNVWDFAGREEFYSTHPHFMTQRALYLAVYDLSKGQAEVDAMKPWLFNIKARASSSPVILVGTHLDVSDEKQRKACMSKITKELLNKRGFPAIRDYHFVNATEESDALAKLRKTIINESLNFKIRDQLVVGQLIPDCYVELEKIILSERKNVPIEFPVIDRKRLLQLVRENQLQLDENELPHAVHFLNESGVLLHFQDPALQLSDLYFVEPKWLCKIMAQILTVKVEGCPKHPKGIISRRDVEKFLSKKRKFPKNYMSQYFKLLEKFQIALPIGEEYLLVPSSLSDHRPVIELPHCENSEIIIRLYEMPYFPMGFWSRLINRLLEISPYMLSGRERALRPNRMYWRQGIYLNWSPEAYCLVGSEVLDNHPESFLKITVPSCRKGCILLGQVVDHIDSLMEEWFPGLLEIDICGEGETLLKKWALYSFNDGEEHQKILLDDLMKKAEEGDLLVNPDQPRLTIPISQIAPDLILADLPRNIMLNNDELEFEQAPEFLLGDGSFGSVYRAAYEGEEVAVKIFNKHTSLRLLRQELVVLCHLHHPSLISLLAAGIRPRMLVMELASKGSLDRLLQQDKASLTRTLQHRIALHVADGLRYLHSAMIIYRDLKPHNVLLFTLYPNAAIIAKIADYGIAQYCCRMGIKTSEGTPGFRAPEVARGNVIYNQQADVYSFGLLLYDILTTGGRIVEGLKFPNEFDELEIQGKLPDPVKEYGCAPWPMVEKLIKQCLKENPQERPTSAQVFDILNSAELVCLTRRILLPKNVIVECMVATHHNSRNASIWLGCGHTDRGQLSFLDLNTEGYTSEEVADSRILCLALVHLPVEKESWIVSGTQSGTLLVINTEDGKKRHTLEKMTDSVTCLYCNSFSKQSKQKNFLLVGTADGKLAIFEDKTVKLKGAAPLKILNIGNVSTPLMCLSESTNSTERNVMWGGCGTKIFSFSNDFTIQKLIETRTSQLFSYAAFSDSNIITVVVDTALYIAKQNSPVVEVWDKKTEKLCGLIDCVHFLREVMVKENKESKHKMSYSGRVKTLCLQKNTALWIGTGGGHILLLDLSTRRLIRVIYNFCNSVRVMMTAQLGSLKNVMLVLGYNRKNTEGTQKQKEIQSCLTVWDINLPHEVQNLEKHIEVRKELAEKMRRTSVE
Chain of STK17A (Q9UEE5 whole entry): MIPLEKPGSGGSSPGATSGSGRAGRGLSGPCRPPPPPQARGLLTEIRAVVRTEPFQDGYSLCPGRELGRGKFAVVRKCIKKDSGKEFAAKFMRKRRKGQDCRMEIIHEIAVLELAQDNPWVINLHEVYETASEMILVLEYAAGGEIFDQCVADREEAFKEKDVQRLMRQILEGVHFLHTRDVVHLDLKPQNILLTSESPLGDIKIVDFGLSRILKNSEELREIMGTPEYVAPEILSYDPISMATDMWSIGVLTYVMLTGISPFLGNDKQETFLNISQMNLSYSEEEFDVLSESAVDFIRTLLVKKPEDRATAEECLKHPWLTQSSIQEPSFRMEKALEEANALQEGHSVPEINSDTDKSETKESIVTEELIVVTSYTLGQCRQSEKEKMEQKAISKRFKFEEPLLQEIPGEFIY
Chain of MASTL (Q96GX5 whole entry): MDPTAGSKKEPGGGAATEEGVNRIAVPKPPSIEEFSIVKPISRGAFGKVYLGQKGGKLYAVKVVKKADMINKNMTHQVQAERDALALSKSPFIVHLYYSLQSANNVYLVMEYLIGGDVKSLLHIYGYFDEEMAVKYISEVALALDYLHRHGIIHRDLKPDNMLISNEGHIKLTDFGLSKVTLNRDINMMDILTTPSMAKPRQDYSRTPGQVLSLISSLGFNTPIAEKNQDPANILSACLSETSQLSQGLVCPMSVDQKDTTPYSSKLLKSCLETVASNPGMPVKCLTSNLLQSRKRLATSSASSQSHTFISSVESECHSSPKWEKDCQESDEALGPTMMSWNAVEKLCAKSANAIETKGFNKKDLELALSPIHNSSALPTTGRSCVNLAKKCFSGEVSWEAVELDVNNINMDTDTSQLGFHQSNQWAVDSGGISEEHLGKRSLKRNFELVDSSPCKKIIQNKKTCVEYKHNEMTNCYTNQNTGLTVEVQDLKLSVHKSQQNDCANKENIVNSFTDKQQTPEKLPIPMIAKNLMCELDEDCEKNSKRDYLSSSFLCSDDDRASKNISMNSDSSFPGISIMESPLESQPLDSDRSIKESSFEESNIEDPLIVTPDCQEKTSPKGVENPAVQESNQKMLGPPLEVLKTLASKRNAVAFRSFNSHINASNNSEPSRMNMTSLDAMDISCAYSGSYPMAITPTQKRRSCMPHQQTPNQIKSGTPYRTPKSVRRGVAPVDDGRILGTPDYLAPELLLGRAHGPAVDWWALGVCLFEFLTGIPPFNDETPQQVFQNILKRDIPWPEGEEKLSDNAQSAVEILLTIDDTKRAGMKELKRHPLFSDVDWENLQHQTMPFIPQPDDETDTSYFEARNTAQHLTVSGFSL

O=C1NCCCCCNc2nc(c3ccccc3n2)Nc2cc1[nH]n2 [21c, (Z)-3^1H-2,5,11-triaza-1(4,2)-quinazolina-3(3,5)-pyrazolacycloundecaphan-4-one]
21c Remaining activity, percent of control [%] [1]: 92.1%
21c Remaining activity, percent of control [%] [2]: 83.6%
21c Remaining activity, percent of control [%] [3]: 112.9%
21c Remaining activity, percent of control [%] [4]: 103.0%
21c Remaining activity, percent of control [%] [5]: 90.8%
21c Remaining activity, percent of control [%] [6]: 106.8%
21c Remaining activity, percent of control [%] [7]: 101.3%
21c Remaining activity, percent of control [%] [8]: 105.2%
21c Remaining activity, percent of control [%] [9]: 85.8%
21c Remaining activity, percent of control [%] [10]: 103.7%
21c Remaining activity, percent of control [%] [11]: 90.2%
21c Remaining activity, percent of control [%] [12]: 98.0%
21c Remaining activity, percent of control [%] [13]: 96.5%
21c Remaining activity, percent of control [%] [14]: 101.8%
21c Remaining activity, percent of control [%] [15]: 69.4%
21c Remaining activity, percent of control [%] [16]: 90.3%
21c Remaining activity, percent of control [%] [17]: 118.0%
21c Remaining activity, percent of control [%] [18]: 100.3%
21c Remaining activity, percent of control [%] [19]: 97.3%
21c Remaining activity, percent of control [%] [20]: 83.0%
21c Remaining activity, percent of control [%] [21]: 86.7%
21c Remaining activity, percent of control [%] [22]: 98.0%
21c Remaining activity, percent of control [%] [23]: 103.1%
21c Remaining activity, percent of control [%] [24]: 96.3%
21c Remaining activity, percent of control [%] [25]: 42.6%
21c Remaining activity, percent of control [%] [26]: 96.3%
21c Remaining activity, percent of control [%] [27]: 122.5%
21c Remaining activity, percent of control [%] [28]: 99.0%
21c Remaining activity, percent of control [%] [29]: 72.1%
21c Remaining activity, percent of control [%] [30]: 103.5%
21c Remaining activity, percent of control [%] [31]: 93.6%

From publication doi:10.1101/2023.10.20.563248v1 (biorxiv, 2023)
